Reference: the supplement of paper PMC10883282

Experiments:
Experiment in all cases: relative viability vs DMSO control (72 h) (fraction); higher = more viable cells
HT1080 = test system: HT1080
Method in brief: (§1)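 Sarcoma cell lines were plated in 384 wells to reach 80–90% confluence, treated after 24 h with 2.5 µl of serially diluted compound and held 72 h at 37 °C, 5% CO2. Relative viability was taken as percent growth from ATPLite readings, averaged over up to triplicate wells. The values were rescaled so that 1 marks full and 0 marks none.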

KHOS-NP = test system: KHOS-NP
Method in brief: as §1

RD-ES = test system: RD-ES
Method in brief: as §1

SW684 = test system: SW684
Method in brief: as §1

SYO-1 = test system: SYO-1
Method in brief: as §1

Cc1cc(Nc2ncc(Cl)c(Nc3ccccc3S(=O)(=O)C(C)C)n2)c(OC(C)C)cc1C1CCNCC1 [Ceritinib]
relative viability
Settings	HT1080	KHOS-NP	RD-ES	SW684	SYO-1
0.00017 µM	1.02	1.04	0.94	1.07	1.02
0.00051 µM	1.01	1.04	0.938	1.083	1.02
0.00152 µM	1.02	1.04	0.955	1.09	1.06
0.00457 µM	1.04	1.06	0.957	1.08	1.07
0.01372 µM	1.02	1.06	0.955	1.12	1.05
0.04115 µM	1.06	1.05	0.943	1.095	1.01
0.1235 µM	1.04	1.05	0.89	1.122	0.987
0.3704 µM	1.03	1.02	0.681	1.08	0.919
1.111 µM	0.983	1.02	0.454	1.15	0.882
3.333 µM	0.777	0.95	0.304	0.883	0.51
10 µM	-0.000267	0.0055	0.00243	-0.0212	-0.00767

C[C@@H](Oc1cc(-c2cnn(C3CCNCC3)c2)cnc1N)c1c(Cl)ccc(F)c1Cl [Crizotinib]
relative viability
Settings	HT1080	KHOS-NP	RD-ES	SW684	SYO-1
0.00017 µM	1.07	1.11	0.969	1.16	0.957
0.00051 µM	1.05	1.107	0.96	1.19	0.982
0.00152 µM	1.07	1.09	0.963	1.17	1
0.00457 µM	1.09	1.11	0.95	1.23	0.99
0.01372 µM	1.07	1.1	0.963	1.21	0.973
0.04115 µM	1.07	1.1	0.972	1.22	0.944
0.1235 µM	1.06	1.103	0.911	1.17	0.855
0.3704 µM	1.07	1.103	0.745	1.09	0.655
1.111 µM	1.01	1.08	0.26	0.976	0.346
3.333 µM	0.754	0.974	0.0918	0.737	0.13
10 µM	0.00533	0.0806	0.00543	0.0253	-0.00763
